Assay results: article PMC5994430, “Mitochondrial Delivery of Phenol Substructure Triggers Mitochondrial Depolarization and Apoptosis of Cancer Cells” (Frontiers in Pharmacology, 2018)

Key:
[1] = Lipophilicity, shake-flask n-octanol/PBS pH 7.4; assay type: physicochemical; settings: n-octanol/50 mM PBS pH 7.4, shake-flask, room temperature, at least six measurements
Procedure: The partition coefficient between n-octanol and PBS at pH 7.4 (log P) was obtained by shake-flask technique at room temperature. In the shake flask experiments 50 mM PBS pH 7.4 was used as aqueous phase; the organic (n-octanol) and aqueous phase (PBS) were mutually saturated by shaking for 4 h. The compounds were solubilised in the buffered aqueous phase at a concentration of 30 μg/ml and appropriate amounts of n-octanol were added. The two phases were shaken for about 20 min, by which time the partitioning equilibrium of solutes is reached, and then centrifuged (10000 rpm, 10 min). The concentration of the solutes was measured in the aqueous phase by UV spectrophotometer (UV-2501PC, Shimadzu); the values of absorbance (223, 268 and 275 nm) were interpolated in calibration curves obtained using standard solutions of compounds (concentration range 30–0.5 μg/ml; r^2 > 0.99). Each log P-value is an average of at least six measurement.

BEAS-2B cells [2] = experiment: Cell viability (neutral red); assay type: cell-based, Human; settings: for IC50: Homo sapiens, BEAS-2B normal bronchial epithelial cells, cell viability, CompuSyn; for cell viability: BEAS-2B, 0.1, 1 or 10 μM, 72 h
Excerpt: (§1) Human colon cancer HT29 cells, colon-derived normal fibroblast CCD-18Co cells, lung cancer A549 cells, normal human bronchial epithelial (immortalized with adenovirus 12-SV40 virus hybrid Ad12SV40) BEAS-2B cells, breast cancer MDA-MB-231 cells, normal breast epithelial MCF10A cells, human osteosarcoma U-2OS cells were purchased from ATCC (Manassas, VA, United States). […] All subjects gave written informed consent in accordance with the Declaration of Helsinki. Cells were maintained in medium supplemented with 10% v/v fetal bovine serum, 1% v/v penicillin-streptomycin, 1% v/v L-glutamine. Morphological analysis was performed with a bright field microscope (Leica Microsystems, Wetzlar, Germany). At least 5 fields/experimental condition were examined.
(§2) LDH activity was measured in the extracellular medium and in the cell lysate: 50 μl of extracellular medium or 5 μl of cell lysate were incubated at 37°C with 5 mM NADH. The reaction was started by adding 20 mM pyruvic acid and was monitored for 6 min, measuring absorbance at 340 nm using a Synergy HT Multi-Detection Microplate Reader (Bio-Tek Instruments, Winoosky, MT, United States). […] Both intracellular and extracellular enzyme activities were expressed as μmol NADH oxidized/min/dish. The results were expressed as percentage of extracellular LDH versus total (intracellular plus extracellular) LDH. […] The absorbance of untreated cells was considered as 100% viability; the results were expressed as percentage of viable cells versus untreated cells. IC50 was calculated with the CompuSyn software^1.

A549 cells [3] = experiment: Mitochondrial/cytosolic distribution by LC-ESI-MS; assay type: cell-based, Human; settings: for intracellular hydrolysis of the ester to the parent phenol: 4 h incubation, 0.1 and 1 μM; for penetration into cells / intracellular concentration after direct incubation: A549, 4 h incubation with 0.1 and 1 μM; for mitochondrial vs cytosolic distribution after incubation with 2: 4 h incubation with 0.1 and 1 μM of 2; for cytosolic concentration of 15 after incubation with 1: cytosolic fraction
Procedure: (§3) Mitochondria were isolated as reported ([Riganti et al., 2013a]). To isolate mitochondrial fractions, 5 × 10^6 cells were washed twice in ice-cold PBS, then lysed in 0.5 ml buffer A (50 mM Tris, 100 mM KCl, 5 mM MgCl2, 1.8 mM ATP, 1 mM EDTA; pH 7.2), supplemented with protease inhibitor cocktail III (Calbiochem. La Jolla, CA, United States), 1 mM phenylmethylsulfonyl fluoride and 250 mM NaF. Samples were clarified by centrifuging at 650 × g for 3 min at 4°C. The supernatant was collected and centrifuged at 13,000 × g for 5 min at 4°C. This supernatant, containing the cytosolic fraction, was stored at -80°C until the use. The pellet containing mitochondria was washed in 0.5 ml buffer A and re-suspended in 0.25 ml buffer B (250 mM sucrose, 15 mM K2HPO4, 2 mM MgCl2, 0.5 mM EDTA, 5% w/v, BSA). A 50 μl aliquot was sonicated and used for the measurement of protein content or Western blotting; the remaining part was stored at -80°C until the use. To confirm the presence of mitochondrial proteins in the extracts and the absence of cytosolic contamination in the mitochondrial fraction, 10 μg of each sonicated sample were subjected to SDS–PAGE and probed with an anti-porin antibody (Abcam, Cambridge, United Kingdom), a mitochondrial marker, and with an anti-glyceraldehyde 3-phosphate dehydrogenase antibody (GAPDH; Santa Cruz Biotechnology Inc., Santa Cruz, CA, United States), a cytosolic marker. Mitochondrial extracts were used only if they had detectable levels of porin and undetectable levels of GAPDH. To exclude any mitochondrial contamination in the cytosolic extracts, the absence of porin and the presence of GAPDH in the latter was analyzed by Western blotting (Supplementary Figure S1). Nuclear proteins were extracted using the Nuclear Extract Kit (Active Motif, La Hulpe, Belgium). 10 μg of nuclear extracts were subjected to SDS–PAGE and probed with antibodies against: proliferator-activated receptor gamma coactivator 1-α (PGC-1α; Abcam), an index of increased mitochondrial biogenesis ([Buondonno et al., 2016]), or TATA box Binding Protein (TBP; Santa Cruz Biotechnology Inc.), as control of equal protein loading.
(§4) The amount of 1, 2, 15, and 16 in the mitochondrial and cytosolic fractions was determined by LC-ESI-MS analyses. LC-ESI-MS analyses were performed with an Acquity Ultra Performance LC^TM (Waters Corporation, Milford, MA, United States), equipped with BSM, SM, CM, and PDA detector. All the chromatographic separations were performed on a Zorbax Eclipse XDB-C18 (5 μm, 150 mm × 4.6 mm) (Agilent Technologies) as a stationary phase. The supernatant samples obtained from incubation were filtered through a 0.45 μm pore size PTFE membrane filter before use. Aliquots (5 μl) were injected onto the system and eluted with a mobile phase (flow rate, 0.5 ml/min) consisting of A, 0.1% formic acid solution, and B, acetonitrile. The following gradient was used: 0–5 min (A = 50%, B = 50%), 5–7 min (to A = 20%, B = 80%), 7–8 min (A = 20%, B = 80%), 8–10 min (to A = 50%, B = 50%). The eluate was injected into the electrospray ion source (ESI), and monitored using Micromass Quattro microTM API ESCi multi-mode ionization Enabled as detector. MS spectra were acquired and processed using MassLynx software. The operating conditions on the triple quadruple mass spectrometer were as follows: positive mode; drying gas (nitrogen) heated at 350°C at a flow rate of 800 l/h; nebulizer gas (nitrogen) at 80 l/h; capillary voltage in positive mode at 3000 V; cone voltage at 30 V. The molecular ion [M]^+ was employed for quantitative measurements of analytes. The values obtained from integration of the peak of compounds were interpolated in a calibration curve obtained using standard solutions at 0.01 to 5 μM. The amount of each compound in the mitochondrial and cytosolic fractions was expressed as pmol/mg proteins.
(§5) FIGURE 5 Intra-mitochondrial and cytosolic accumulation of TPP-derivatives. […]

BEAS-2B cells [4] = experiment: Mitochondrial/cytosolic distribution by LC-ESI-MS; assay type: cell-based, Human; settings: 4 h incubation with 0.1 and 1 μM
Procedure: as §3, §4, §5

A549 cells [5] = experiment: Cell viability (neutral red); assay type: cell-based, Human; settings: for cell viability: A549, 0.1, 1 or 10 μM, 72 h; for IC50: cell viability, CompuSyn
Excerpt: as §1, §2

| intracellular concentration after direct incubation (A549 cells [3]) | intracellular concentration after direct incubation (BEAS-2B cells [4]) | cytosolic concentration of 15 after incubation with 1 (A549 cells [3]; 4 h incubation with 0.1 μM of 1) | mitochondrial accumulation of 15 after incubation with 1 (A549 cells [3]; 4 h incubation with 0.1 μM of 1, mitochondrial fraction) | cytosolic concentration of 15 after incubation with 1 (A549 cells [3]; 4 h incubation with 1 μM of 1) | Compound | logP [1] | IC50 (BEAS-2B cells [2]) | intracellular hydrolysis of the ester to the parent phenol (A549 cells [3]) | penetration into cells (A549 cells [3]) | concentration in BEAS-2B cells compared with A549 cells (BEAS-2B cells [4]) | cell viability (A549 cells [5]) | cell viability (BEAS-2B cells [2]) | mitochondrial vs cytosolic distribution after incubation with 2 (A549 cells [3]) | IC50 (A549 cells [5]; A549 lung cancer cells) | IC50 (A549 cells [5]; Homo sapiens, A549, A549 lung cancer cells) |
| --- | --- | --- | --- | --- | --- | --- | --- | --- | --- | --- | --- | --- | --- | --- | --- |
|  |  |  |  |  | CC(=O)Oc1ccc(C[P+](c2ccccc2)(c2ccccc2)c2ccccc2)cc1.[Br-] [Compound 1] | 0.64 | 5.26 ± 0.25 µM | fast hydrolysis into phenol 15 | penetrate in good extent | at least ten fold lower |  |  |  |  |  |
| very low | very low |  |  |  | Oc1ccc(C[P+](c2ccccc2)(c2ccccc2)c2ccccc2)cc1C(F)(F)F.[Br-] [Compound 16] | 1.02 |  |  |  |  | nor reduced cell viability | nor reduced cell viability | accumulate almost exclusively at mitochondrial level |  |  |
|  |  |  |  |  | O=C(Oc1ccc(C[P+](c2ccccc2)(c2ccccc2)c2ccccc2)cc1C(F)(F)F)c1ccccc1.[Br-] [Compound 2] | 3.15 | 7.36 ± 0.45 µM | more stable with respect to acetate | penetrate in good extent | at least ten fold lower |  |  | accumulate almost exclusively at mitochondrial level | 0.55 ± 0.07 µM | < 1 µM |
| very low | very low | below detection limit | easily detectable | very low | Oc1ccc(C[P+](c2ccccc2)(c2ccccc2)c2ccccc2)cc1.[Br-] [Compound 15] | 0.5 |  |  |  |  | nor reduced cell viability | nor reduced cell viability |  |  |  |
